Assay results reported in patent US20240043470A1, “MACROCYCLIC COMPOUNDS AS PROTEASOME INHIBITORS” (CORNELL UNIVERSITY, priority 2017, published 2024).
Read-outs that look alike come from different tables or passages of the source.

Legend:
[1] = 16-membered ring
[2] = rcm bond
β5c of hu c-20S = β5c of hu c-20S (Homo sapiens (Human), UniProt P20618+P28074); assay: IC50 determination against β5c of human constitutive proteasome (suc-LLVY-AMC hydrolysis); type: biochemical; conditions: 0.2 nM c-20S, 25 μM suc-LLVY-AMC;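 also: IC50 obtained by fitting initial reaction velocities to a dose-dependent inhibition model, with SDS present as proteasome activator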
β5i of hu i-20S = β5i of hu i-20S (Homo sapiens (Human), UniProt P20618+P28062); assay: IC50 determination against β5i of human immunoproteasome (Ac-ANW-AMC hydrolysis); type: biochemical; conditions: β5i, 0.4 nM i-20S, 15 μM Ac-ANW-AMC;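 also: enzyme activity taken as the initial reaction velocity per well, with SDS added to activate the proteasome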
[3] = amide bond, 16-membered ring, EDCI/HOBt/DIEA, DMF
[4] = system: IL-6 in LPS-stimulated human macrophages; assay: Inhibition of IL-6 in LPS-stimulated human macrophages (Q-PCR and ELISA); type: cell-based; conditions: LPS 50 ng/ml; 6 h gene expression (FIG. 1A), 24 h ELISA (FIG. 1B); compound added 15 minutes before LPS
Description: Monocytes were isolated from the blood of 2 healthy donors using CD14 magnetic beads and cultured with 20 ng/ml of MCSF for 24 hours to induce the differentiation into macrophages. 200,000 cells/wells in 96 wells plate were incubated with LPS (50 ng/ml) for 6 hours for RNA isolation and gene expression analysis (FIG. 1A) and 24 hours for ELISA (FIG. 1B). The proteasome inhibitor 4-13 used at the indicated concentration was added 15 minutes before adding LPS. At 6 hours, RNA were prepared using Qiagen RNA plus kit and cDNA were synthetized using the Thermofisher cDNA synthesis kit (FIG. 1A). Q-PCR was performed in duplicate and expression levels normalized to the level of the housekeeping gene ubiquitin. At 24 hours, supernatants were collected and IL-6 production quantified by ELISA (FIG. 1B).

Molecule “(hex-5-enoyl)-Asp(OBn)-((2S)-2-aminonon-8-enoic acid)-OtBu?” has a ring closure, isolated yield ([1]; the molecule shown is the open-chain precursor, rcm bond, Grubbs II, toluene, 1.27 mM, 40.0 °C) of 92.6%.

For CC(=O)N[C@H]1Cc2cccc(c2)OCC=CC[C@@H](C(=O)NCC(F)(F)F)NC(=O)[C@H](CCc2ccccc2)NC1=O, the ring closure, yield of all isomers ([2]; from C=CCOc1cccc(C[C@H](NC(C)=O)C(=O)N[C@@H](CCc2ccccc2)C(=O)N[C@@H](CC=C)C(=O)NCC(F)(F)F)c1, Grubbs 2nd generation catalyst, DCM, 5.33 mM, 40.0 °C, 4.0 h) was 47%.

For O=C1CCC/C=C\CCCCC[C@@H](C(=O)NCc2cccc3ccccc23)NC(=O)[C@H](CC(=O)N2CCCC2)N1 [Compound 4-05, (2S,5S,11Z)—N-(1-Naphthylmethyl)-3,16-dioxo-2-(2-oxo-2-pyrrolidin-1-yl-ethyl)-1,4-diazacyclohexadec-11-ene-5-carboxamide], the ring closure, yield of all isomers ([2]; from C=CCCCCC[C@H](NC(=O)[C@H](CC(=O)N1CCCC1)NC(=O)CCCC=C)C(=O)NCc1cccc2ccccc12, Grubbs 2nd Generation catalyst, CH2Cl2, 1.11 mM, 50.0 °C, 20.0 h) was 36%, the IC50 (β5c of hu c-20S) was > 100 µM and the ring closure, isolated yield ([1]; from (hex-5-enoyl)-Asp(pyrrolidin-1-yl amide)-((2S)-2-aminonon-8-enoic acid)-NHCH2(1-naphthyl)?, rcm bond, Grubbs II, CH2Cl2, 1.11 mM, 50.0 °C) was 36%. The IC50 (β5i of hu i-20S) was 4.36 µM.

Molecule CC(=O)N[C@H]1CC=CCOc2cccc(c2)C[C@@H](C(=O)NCC(F)(F)F)NC(=O)[C@H](CCc2ccccc2)NC1=O has a ring closure, yield of all isomers ([2]; from C=CCOc1cccc(C[C@H](NC(=O)[C@H](CCc2ccccc2)NC(=O)[C@H](CC=C)NC(C)=O)C(=O)NCC(F)(F)F)c1, Grubbs 2nd generation catalyst, DCM, 24.9 mM, 40.0 °C, 4.0 h) of 88.8%.

For “(5S,8S,11S)-7,10-Dioxo-11-(2-oxopyrrolidin-1-yl)-8-(2-(piperidin-1-yl)ethyl)-N-(2,2,2-trifluoroethyl)-2-oxa-6,9-diaza-1,3(1,3)-dibenzenacyclododecaphane-5-carboxamide”, the ring closure, yield after HPLC ([3]; 15.8 mM, 20.0 °C) was 24.2%.

For CC(C)(C)OC(=O)[C@@H]1CCCCCC=CCCCC(=O)N[C@@H](CC(=O)OCc2ccccc2)C(=O)N1, the ring closure, yield of all isomers ([2]; from C=CCCCCC[C@H](NC(=O)[C@H](CC(=O)OCc1ccccc1)NC(=O)CCCC=C)C(=O)OC(C)(C)C, Grubbs 2nd Generation catalyst, toluene, 1.27 mM, 40.0 °C, 16.0 h) was 92.6%.

For O=C1CCCCCCCCCC[C@@H](C(=O)NCc2ccccc2F)NC(=O)[C@H](CC(=O)N2CCCC2C2CC2)N1 (stereo partly shown) [Compound 4-13], the IC50 (β5c of hu c-20S) was 0.274 µM, the IC50 (β5i of hu i-20S) was 0.018 µM and the “Inhibition of IL-6 in LPS-stimulated human macrophages” value [4] was “inhibition of IL-6”.

For “Ac-Gly(allyl)-hPhe-Phe(3-OAllyl)-NHCH2CF3?”, the ring closure, isolated yield ([1]; the molecule shown is the open-chain precursor, rcm bond, Grubbs II, DCM, 24.9 mM, 40.0 °C) was 88.8%.

“(5S,8S,11S)-6-Methyl-7,10-dioxo-11-(2-oxopyrrolidin-1-yl)-8-phenethyl-N-(2,2,2-trifluoroethyl)-2-oxa-6,9-diaza-1,3(1,3)-dibenzenacyclododecaphane-5-carboxamide” gave a ring closure, yield after HPLC ([3]; 18.3 mM, 25.0 °C) of 26%.

In the case of “(2-benzylhex-5-enoyl)-Asp(OBn)-(2-aminonon-8-enoic acid)-OMe?”, the ring closure, isolated yield ([1]; the molecule shown is the open-chain precursor, rcm bond, Grubbs II, DCE, […], 50.0 °C) is reported as 53%.

Work on “(5S,8S,11S)-11-Acetamido-7,10-dioxo-8-propyl-N-(2,2,2-trifluoroethyl)-2-oxa-6,9-diaza-1,3(1,3)-dibenzenacyclododecaphane-5-carboxamide” yielded a ring closure, isolated yield ([1]; amide bond, HATU/DIEA, DMF, […], 0.0 °C) of 18.7%.

Molecule O=C1CCc2cccc(c2)OCC=CC[C@@H](C(=O)NC2CCCC2)NC(=O)[C@H](CCc2ccc(F)cc2)N1 has a ring closure, yield of all isomers ([2]; from C=CCOc1cccc(CCC(=O)N[C@@H](CCc2ccc(F)cc2)C(=O)N[C@@H](CC=C)C(=O)NC2CCCC2)c1, Grubbs catalyst 2nd generation, 1,2-dichloroethane, […], 60.0 °C, 12.0 h) of 65%.

O=C1CCc2cccc(c2)OCC=CC[C@@H](C(=O)NC2CCCC2)NC(=O)[C@H](CC(=O)N2CCCC2C2CC2)N1 (stereo partly shown) showed a ring closure, yield of all isomers ([2]; from C=CCOc1cccc(CCC(=O)N[C@@H](CC(=O)N2CCCC2C2CC2)C(=O)N[C@@H](CC=C)C(=O)NC2CCCC2)c1, Grubbs 2nd generation, 1,2-dichloroethane, 4.09 mM, 50.0 °C, 12.0 h) of 46.7%.

“(7S,10S,13S,E)-13-Acetamido-9,12-dioxo-10-phenethyl-N-(2,2,2-trifluoroethyl)-2-oxa-8,11-diaza-1(1,3)-benzenacyclotetradecaphan-4-ene-7-carboxamide” gave a ring closure, isolated yield ([1]; rcm bond, Grubbs II, DCM, 5.3 mM, 40.0 °C) of 47%.
